# Assay results reported in US11339171B2, “MDM2 inhibitors” (Gan & Lee Pharmaceuticals, priority 2017, dated 2022).
# “And” between values parts separate entries of the source, which are not always exact repeats. Equal entries are not always repeated. Where two headings read alike, the source gives them in different places.
# What was measured:
# [1] = Pharmacokinetics in ICR mice after intravenous and intragastric administration; format: in vivo; details: for MRT last: read-out: MRT(0-t); for MRT inf: read-out: MRT(0-∞); for Vd: read-out: Vz
# In short: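 Male ICR mice aged 6-9 weeks are dosed after an overnight fast, intravenously at 2 mg/kg and orally by gavage at 5 mg/kg. Plasma drug is measured by LC-MS/MS over a 1-2000 ng/ml range.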
# [2] = system: human osteosarcoma cell line SJSA-1; assay: Inhibition of proliferation of human osteosarcoma cell line SJSA-1 (DAPI staining, In Cell Analyzer); details: Homo sapiens, SJSA-1, 72 h, read-out: IC50 (nM), inhibitory activity on proliferation of human osteosarcoma cell line SJSA-1, SJSA-1, incubated 72 h
# Procedure: 2.2 Experiment Preparation:
# 2.2.1 Preparation of a culture medium for human osteosarcoma cell line SJSA-1: RPMI1640+10% FBS+1% penicillin/streptomycin
# 2.2.2 Preparation of a test compound solution:
# a. the test compound solution with a certain concentration was taken, and diluted with the culture medium to obtain a compound solution with a final concentration of 20 μM;
# b. 200 μL of a culture medium containing 0.2% DMSO (dimethyl sulfoxide) was added into H2-H10 of a 96-well plate; 300 μl of the above solution was added into H1; and
# c. 100 μL was taken out from well H1, added into H2, and mixed well; then 100 μl of the resultant solution was taken and added into H3, and dilution was carried out in sequence until H9 to obtain the 3-fold serial dilution of the test compound.
# 2.3 Experimental Process:
# 2.3.1 SJSA-1 cells were inoculated into a 96-well cell plate with black transparent bottom at 4000 cells/100 μl/well, and cultured overnight at 37° C.;
# 2.3.3 Fixation: the cell plate was taken out, the culture medium was removed, and 50 μL of 4% paraformaldehyde solution was added to each well to fix for 10 min;
# 2.3.4 50 μl of 0.1 M glycine was added to neutralize for 10 min;
# 2.3.5 Washing was performed with 1×PBS (phosphate buffer solution pH7.2) twice;
# 2.3.6 Permeabilization: 50 μL of 0.2% TritonX-100 (Triton) was added per well, and permeabilization was carried out at room temperature for 10 min;
# 2.3.7 Washing was performed with 1×PBS (phosphate buffer solution pH7.2) twice;
# 2.3.9 Washing was performed with 1×PBS (phosphate buffer solution pH7.2) for three times; and
# 2.3.10 Scanning and analysis were performed by In cell analyzer.
# The inhibition rate of each compound at each concentration point was calculated according to the following formula, and curve fitting was performed by GraphPad Prism 6.0 software to obtain the IC50 value.
# MDM2 = molecular target: T1, MDM2 (Homo sapiens, UniProt Q00987); assay: Inhibition test of MDM2-P53 (GST-MDM2, Biotin-P53, Anti-GST-Tb, SA-XL665); format: binding
# T1 construct: made in house
# In short: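 HTRF-type assay using 4 nM GST-MDM2 (final), Biotin-P53, SA-XL665 and anti-GST-Tb in PBS with 0.1% BSA, 5 mM DTT and 1 mM AEBSF. Compounds in 5-fold serial dilutions over twelve points; incubation 90 min at 25° C with shaking before plate-reader read-out.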
# [3] = ICR mice, IV 2 mg/kg, individual animal, 2 mg/kg
# [4] = ICR mice, PO 5 mg/kg, individual animal, 5 mg/kg
# [5] = male, ICR, mouse, plasma, iv, 2 mg/kg, ICR mice, IV 2 mg/kg, individual animal
# [6] = male, ICR, mouse, plasma, iv, 2 mg/kg, ICR mice, IV 2 mg/kg, individual animal, read-out: Cmax
# [7] = male, ICR, mouse, plasma, iv, 2 mg/kg, ICR mice, IV 2 mg/kg, individual animal, read-out: Tmax
# [8] = male, ICR, mouse, plasma, iv, 2 mg/kg, ICR mice, IV 2 mg/kg, individual animal, read-out: t1/2 (converted)
# [9] = male, ICR, mouse, plasma, iv, 2 mg/kg, ICR mice, IV 2 mg/kg, mean of 3 animals
# [10] = male, ICR, mouse, plasma, iv, 2 mg/kg, ICR mice, IV 2 mg/kg, mean of 3 animals, read-out: AUC(0-t)
# [11] = male, ICR, mouse, plasma, iv, 2 mg/kg, ICR mice, IV 2 mg/kg, mean of 3 animals, read-out: Cmax
# [12] = male, ICR, mouse, plasma, iv, 2 mg/kg, ICR mice, IV 2 mg/kg, mean of 3 animals, read-out: Tmax
# [13] = male, ICR, mouse, plasma, iv, 2 mg/kg, ICR mice, IV 2 mg/kg, mean of 3 animals, read-out: t1/2 (converted)
# [14] = male, ICR, mouse, plasma, po, 5 mg/kg, ICR mice, PO 5 mg/kg, individual animal
# [15] = male, ICR, mouse, plasma, po, 5 mg/kg, ICR mice, PO 5 mg/kg, individual animal, read-out: Cmax
# [16] = male, ICR, mouse, plasma, po, 5 mg/kg, ICR mice, PO 5 mg/kg, individual animal, read-out: Tmax
# [17] = male, ICR, mouse, plasma, po, 5 mg/kg, ICR mice, PO 5 mg/kg, individual animal, read-out: t1/2 (converted)
# [18] = male, ICR, mouse, plasma, po, 5 mg/kg, ICR mice, PO 5 mg/kg, mean of 3 animals
# [19] = male, ICR, mouse, plasma, po, 5 mg/kg, ICR mice, PO 5 mg/kg, mean of 3 animals, read-out: AUC(0-t)
# [20] = male, ICR, mouse, plasma, po, 5 mg/kg, ICR mice, PO 5 mg/kg, mean of 3 animals, read-out: Cmax
# [21] = male, ICR, mouse, plasma, po, 5 mg/kg, ICR mice, PO 5 mg/kg, mean of 3 animals, read-out: Tmax
# [22] = male, ICR, mouse, plasma, po, 5 mg/kg, ICR mice, PO 5 mg/kg, mean of 3 animals, read-out: t1/2 (converted)
# [23] = male, ICR, mouse, plasma, po, 5 mg/kg, oral intragastric administration 5 mg/kg, read-out: AUC0-t
# [24] = male, ICR, mouse, plasma, po, 5 mg/kg, oral intragastric administration 5 mg/kg, read-out: half-life (converted)
# [25] = male, mouse, plasma, ICR mice, PO 5 mg/kg vs IV 2 mg/kg, from mean values, read-out: F* (bioavailability)
# T1 sequence (Q00987 whole entry): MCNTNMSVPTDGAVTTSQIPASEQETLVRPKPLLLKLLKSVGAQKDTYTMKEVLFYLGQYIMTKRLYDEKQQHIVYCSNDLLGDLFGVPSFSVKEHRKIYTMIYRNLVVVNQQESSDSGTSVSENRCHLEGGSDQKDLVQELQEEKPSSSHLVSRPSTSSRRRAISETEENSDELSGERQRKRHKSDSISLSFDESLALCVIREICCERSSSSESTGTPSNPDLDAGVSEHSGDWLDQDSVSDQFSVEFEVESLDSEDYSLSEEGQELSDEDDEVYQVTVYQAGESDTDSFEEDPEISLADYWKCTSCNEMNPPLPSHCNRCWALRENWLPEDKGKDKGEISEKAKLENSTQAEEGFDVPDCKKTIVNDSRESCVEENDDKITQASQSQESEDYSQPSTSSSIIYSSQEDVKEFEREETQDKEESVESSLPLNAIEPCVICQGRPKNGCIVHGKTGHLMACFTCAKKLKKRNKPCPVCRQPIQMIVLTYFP
compound,measurement,setting,value
"CCOc1cc(OC)c(-c2nc3c(n2C(C)C)[C@@]2(C(=O)Nc4cc(Cl)ccc42)N(c2cc(Cl)ccc2F)C3=O)cn1 [Example S-98, (S)-6-chloro-5′-(5-chloro-2-fluorophenyl)-2′-(6-ethoxy-4-methoxypyridin-3-yl)-3′-isopropyl-3′H-spiro[dihydroindole-3,4′-pyrrolo[3,4-d]imidazole]-2,6′(5′H)-dione]",AUC(0-t),[1]; [3],8869.53 ng·h/mL and 11177.15 ng·h/mL
same,AUC(0-∞),[1]; [3],9108.92 ng·h/mL and 12596.27 ng·h/mL
same,CL,[1]; [3],3.66 mL/min/kg and 2.65 mL/min/kg
same,Cmax,[1]; [3],3789.06 ng/mL and 3405.07 ng/mL
same,MRT(0-t),[1]; [3],1.43 h and 1.82 h
same,MRT(0-∞),[1]; [3],1.60 h and 2.60 h
same,Vz,[1]; [3],0.37 L/kg and 0.44 L/kg
same,t1/2,[1]; [3],1.17 h and 1.93 h
same,AUC(0-t),[1]; [4],37288.31 ng·h/mL and 18064.52 ng·h/mL and 23330.62 ng·h/mL
same,AUC(0-∞),[1]; [4],19691.36 ng·h/mL and 23352.18 ng·h/mL
same,Cmax,[1]; [4],3420.72 ng/mL and 2943.86 ng/mL
same,MRT(0-t),[1]; [4],3.17 h and 4.72 h
same,MRT(0-∞),[1]; [4],3.82 h and 4.74 h
same,Tmax,[1]; [4],2.00 h
same,t1/2,[1]; [4],2.12 h and 2.30 h
same,AUC(0-inf),[1]; [5],10500 ng·h/mL
same,clearance,[1]; [5],3.16 mL/min/kg
same,AUC(0-t),"[1]; male, ICR, mouse, plasma, iv, 2 mg/kg, ICR mice, IV 2 mg/kg, individual animal, read-out: AUC(0-t)",10000 ng·h/mL
same,Cmax,[1]; [6],3670 ng/mL
same,MRT last,[1]; [5],1.55 h
same,MRT inf,[1]; [5],1.86 h
same,Tmax,[1]; [7],0.08 h
same,Vd,[1]; [5],0.39 L/kg
same,half-life,[1]; [8],1.43 h
same,AUC(0-inf),[1]; [9],10700 ng·h/mL
same,clearance,[1]; [9],3.16 mL/min/kg
same,AUC(0-t),[1]; [10],10000 ng·h/mL
same,Cmax,[1]; [11],3620 ng/mL
same,MRT last,[1]; [9],1.6 h
same,MRT inf,[1]; [9],2.02 h
same,Tmax,[1]; [12],0.083 h
same,Vd,[1]; [9],0.4 L/kg
same,half-life,[1]; [13],1.51 h
same,AUC(0-inf),[1]; [14],37300 ng·h/mL
same,Cmax,[1]; [15],3840 ng/mL
same,MRT last,[1]; [14],5.36 h
same,MRT inf,[1]; [14],5.38 h
same,Tmax,[1]; [16],4 h
same,half-life,[1]; [17],2.31 h
same,AUC(0-inf),[1]; [18],26800 ng·h/mL
same,AUC(0-t),[1]; [19],26200 ng·h/mL
same,Cmax,[1]; [20],3400 ng/mL
same,MRT last,[1]; [18],4.41 h
same,MRT inf,[1]; [18],4.65 h
same,Tmax,[1]; [21],2.67 h
same,half-life,[1]; [22],2.24 h
same,AUC(0-t),[1]; [23],26200 ng·h/mL
same,half-life,[1]; [24],2.24 h
same,bioavailability,"[1]; male, ICR, mouse, plasma, oral intragastric administration 5 mg/kg, read-out: bioavailability",105%
same,bioavailability,[1]; [25],105%
same,IC50,[2],56.1 nM
same,IC50,MDM2,1.27 nM
"COc1cc(C2CC2)ncc1-c1nc2c(n1C(C)C)[C@@]1(C(=O)Nc3cc(Cl)ccc31)N(c1cc(Cl)ccc1C)C2=O [Example S-103, (S)-6-chloro-5′-(5-chloro-2-methylphenyl)-2′-(6-cyclopropyl-4-methoxypyridin-3-yl)-3′-isopropyl-3′H-spiro[dihydroindole-3,4′-pyrrolo[3,4-d]imidazole]-2,6′(5′H)-dione]",AUC(0-t),[1]; [3],10460.62 ng·h/mL and 4009.87 ng·h/mL and 5508.40 ng·h/mL
same,AUC(0-∞),[1]; [3],10483.52 ng·h/mL and 5119.53 ng·h/mL and 8771.81 ng·h/mL
same,CL,[1]; [3],3.18 mL/min/kg and 6.51 mL/min/kg and 3.80 mL/min/kg
same,Cmax,[1]; [3],1045.99 ng/mL and 1333.49 ng/mL
same,MRT(0-t),[1]; [3],4.16 h and 2.05 h and 2.33 h
same,MRT(0-∞),[1]; [3],3.75 h and 5.91 h
same,Vz,[1]; [3],1.53 L/kg and 1.35 L/kg
same,t1/2,[1]; [3],2.71 h and 4.11 h
same,AUC(0-t),[1]; [4],13078.28 ng·h/mL and 19872.62 ng·h/mL
same,AUC(0-∞),[1]; [4],14231.55 ng·h/mL and 19888.79 ng·h/mL
same,Cmax,[1]; [4],2344.01 ng/mL and 3008.06 ng/mL
same,MRT(0-t),[1]; [4],3.36 h and 4.45 h
same,MRT(0-∞),[1]; [4],3.93 h and 4.47 h
same,Tmax,[1]; [4],4.00 h
same,t1/2,[1]; [4],1.72 h and 2.23 h
same,Cmax,[1]; [6],1330 ng/mL
same,MRT inf,[1]; [5],4.21 h
same,Tmax,[1]; [7],1 h
same,Vd,[1]; [5],0.79 L/kg
same,half-life,[1]; [8],2.89 h
same,AUC(0-inf),[1]; [9],8120 ng·h/mL
same,clearance,[1]; [9],4.5 mL/min/kg
same,AUC(0-t),[1]; [10],6660 ng·h/mL
same,Cmax,[1]; [11],1240 ng/mL
same,MRT last,[1]; [9],2.85 h
same,MRT inf,[1]; [9],4.62 h
same,Tmax,[1]; [12],1 h
same,Vd,[1]; [9],1.22 L/kg
same,half-life,[1]; [13],3.24 h
same,AUC(0-inf),[1]; [14],11700 ng·h/mL
same,AUC(0-t),"[1]; male, ICR, mouse, plasma, po, 5 mg/kg, ICR mice, PO 5 mg/kg, individual animal, read-out: AUC(0-t)",11000 ng·h/mL
same,Cmax,[1]; [15],2380 ng/mL
same,MRT last,[1]; [14],3.08 h
same,MRT inf,[1]; [14],3.54 h
same,Tmax,[1]; [16],2 h
same,half-life,[1]; [17],1.84 h
same,AUC(0-inf),[1]; [18],15300 ng·h/mL
same,AUC(0-t),[1]; [19],14600 ng·h/mL
same,Cmax,[1]; [20],2580 ng/mL
same,MRT last,[1]; [18],3.63 h
same,MRT inf,[1]; [18],3.98 h
same,Tmax,[1]; [21],3.33 h
same,half-life,[1]; [22],1.93 h
same,AUC(0-t),[1]; [23],14600 ng·h/mL
same,half-life,[1]; [24],1.93 h
same,bioavailability,[1]; [25],87.9%
same,IC50,[2],40.5 nM
same,IC50,MDM2,1.81 nM
